The source of these data is ChEMBL document CHEMBL1201862, “PubChem BioAssay data set” (2004).

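Interpolation was linear, between the two tested concentrations surrounding the appropriate level; five concentrations were tested over 48 hours in 96-well plates. Here, GI50 denotes the concentration required for 50% inhibition of growth.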 The source made the active and inactive calls. No stated cut-off is given here; in the data, active = GI50 up to about 1.1 µM and inactive = higher.

What all share (test): growth of human tumour cells (NCI), 48 h
For assay [1], the system named is EKVX.
The subject of assay [2] is Malme-3M.
Assay [3] deals with HCT-15.
Assay [4] relates to SR.
Assay [5] has as its system DMS-114.
In assay [6] the test system is A498.
Assay [7] concerns SNB-78.
Assay [8] relates to SF-539.
In assay [9] the test system is DMS-273.
In assay [10] the test system is KM-20L2.
In assay [11] the test system is NCI-H226.
In assay [12] the test system is UACC-62.
For assay [13], the system named is MOLT-4.
In assay [14] the test system is NCI-H522.

With `Cc1ccccc1NC(=O)CC(=O)N1N=C(N2c3ccccc3Sc3ccccc32)CC1c1ccccc1` (configuration not stated), the GI50 in assay [1] was > 100 µM (inactive); in [2], > 100 µM (inactive); in [3] it was greater than 100 µM; in assay [4] it was > 100 µM (inactive); in assay [5] it was > 100 µM (inactive); in [6] it was > 100 µM (inactive). Besides, the GI50 in assay [7], in assay [8], in assay [9], in [10], in assay [11] and in assay [12] was > 100 µM (inactive) each time. In assay [13], the GI50 was > 100 µM (inactive).

For the molecule `NC(=O)OCC1=C(COC(N)=O)C(=O)c2c(O)ccc(O)c2C1=O`, the GI50 in [1] is > 100 µM (inactive); in assay [2] it was > 100 µM (inactive); in assay [3], greater than 100 µM; in assay [4], > 100 µM (inactive); in assay [5] it was > 100 µM (inactive); in assay [6] it was > 100 µM (inactive). Further, the GI50 in assay [7], in assay [8], in assay [14], in assay [9], in [10] and in assay [11] was > 100 µM (inactive) throughout. Moreover, the GI50 in assay [12] is 27.3 µM (inactive); in [13], 55.8 µM (inactive).
